Structures are written as SMILES.

One compound from patent US20250134379A1, “Methods for Localization of Cancerous Tissue Using Fluorescent Molecular Imaging Agent for Diagnosis or Treatment” (Vergent Bioscience, Inc., priority 2023, published 2025) can be followed below.

One assay concerns cancerous tissue. Nature of the assay: Preclinical / animal model studies of duration of VGT-309 fluorescence in tissue. It is filed as in vivo. The text has this:
There are several molecular imaging agents that are currently in various stages of development and testing, but of these agents VGT-309 is particularly advantageous. VGT-309 targets and covalently binds to cathepsin targets, which are present in larger amounts in solid tumors and tumor margins than in normal tissues. When this binding occurs, the quencher is cleaved from the molecule and VGT-309 becomes “active” at which point the tumor will fluoresce under near-infrared (NIR) light.

The subject of assay [1] is tumor. As to the kind of experiment: Phase 2 study of VGT-309 in Australia: clinically significant events (CSEs) during tumor removal. Type of assay: in vivo, human. The conditions noted are these: Phase 2 study in Australia. The text has this: CSEs are one way to measure whether an imaging agent, such as VGT-309, adds a clinical benefit to the diagnosis and treatment process. In this context, CSEs generally fall into one of three categories: (1) localization of hard-to-find tumors, (2) identification of positive resection margins, and (3) identification of additional primary and metastatic lesions that were not previously detected using existing technologies. […] In a Phase 2 study of VGT-309 in Australia, one third of patients experienced a […]

Assay [2] relates to tumor. As to the kind of experiment: Intraoperative NIR imaging of patients given VGT-309 before surgery. The conditions noted are these: patient. It is filed as in vivo, human. From the text: A patient appeared to have a localized tumor, as identified by the preoperative scans, but the surgeon identified lymph node spread during resection with VGT-309. […] Absent from these scans were any evidence of spread to other areas of the lungs or the lymph nodes. […] […] The surgeon also visually examined and biopsied the proximal lymph nodes, neither of which indicated the tumor had spread. […] The surgeon was therefore able to perform a biopsy, which confirmed that the cancer had spread, and as a result re-staged the patient in real-time and performed a radical lymph node dissection. At the end of the procedure, the surgeon removed all traces of the cancer.
However, it was confirmed under NIR that this abnormal lung tissue was in fact cancerous.

Regarding `CC1(C)C(/C=C/C2=C(Cl)C(=C/C=C3/N(CCCCCC(=O)NCCNC(=O)c4c(F)c(F)c(OCC(=O)[C@H](CCCCNC(=O)CCCCCN5/C(=C/C=C/C=C/C=C\C6=[N+](CCCCS(=O)(=O)O)c7ccc8ccccc8c7C6(C)C)C(C)(C)c6c5ccc5ccccc65)NC(=O)[C@H](Cc5ccccc5)NC(=O)OCc5ccccc5)c(F)c4F)c4ccc5cc(S(=O)(=O)O)ccc5c4C3(C)C)/CCC2)=[N+](CCCS(=O)(=O)O)c2ccc(N(CCCS(=O)(=O)O)CCCS(=O)(=O)O)cc21` [VGT-309], the “time following administration out to which VGT-309 may continue to emit a signal in tissue” value in the assay with cancerous tissue (animal model studies suggest) was “seven days”. In addition, in the assay on cancerous tissue (based on preclinical studies), the “time after administration at which VGT-309 can fluoresce cancerous tissue” value is given as “two hours to four days”. Moreover, the “fraction of patients who experienced a clinically significant event (CSE)” value in the assay with tumor [1] is “one third”. Moreover, the “detection of lymph node spread under NIR” value with tumor [2] (Example 2, 0.16 mg/kg, approximately 21 hours prior to surgery, biopsy confirmed that the cancer had spread) is “unexpected fluorescence in a more distant lymph node”. Besides, the “identification of metastatic spread / additional tumors under NIR” value in the assay with tumor [2] (Example 3, 0.32 mg/kg, approximately 18.5 hours prior to surgery) was “identify additional tumors using NIR”.
